Assay results taken from patent publication US10118943B2, “Compounds and methods for inhibiting cell death” (Ramot at Tel-Aviv University Ltd., priority 2012, dated 2018).
Entries after “also recorded” stand apart in the source; their conditions may differ.

Columns and labels:
[1] = molecular target: T1, full-length human EB3 recombinant protein (Homo sapiens, UniProt Q9UPY8); test: Sulfolink coupling gel-NAP affinity chromatography with recombinant EB3, western analysis; format: binding; details: 2 mg soluble peptide incubated with recombinant EB3 and column beads
T1 construct: Full-length human EB3 was subcloned into pEX-N-His vector; 6xHis (N, cleaved yes); made in house; host or cells: E. coli BL21(DE3)
T1 sequence (Q9UPY8 whole entry): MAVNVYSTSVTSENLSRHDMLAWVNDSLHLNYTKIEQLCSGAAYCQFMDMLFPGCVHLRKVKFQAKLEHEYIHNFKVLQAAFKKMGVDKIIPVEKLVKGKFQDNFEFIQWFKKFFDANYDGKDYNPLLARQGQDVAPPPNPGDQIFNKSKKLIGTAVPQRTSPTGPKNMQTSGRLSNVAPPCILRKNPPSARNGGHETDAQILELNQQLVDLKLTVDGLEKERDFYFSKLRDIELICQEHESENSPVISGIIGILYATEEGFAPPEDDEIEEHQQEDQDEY
Protocol: Column load, flow through, wash and elution fractions were further analyzed by polyacrylamide gel electrophoresis, followed by western analysis with EB3 antibodies. […] Column chromatography, elution and western blots were performed as above. The extract fractions (flow, wash and elution) were separated by electrophoresis followed by protein detection (FIG. 6).

[2] = system: PC12 cells; test: PC12 cell survival assay, zinc toxicity, MTS (Example 1); details: 400 μM zinc, 4 hrs, peptide 10^−9M
Protocol: PC12 cells (Pheochromocytoma cells) (ATCC, Bethesda, Md., USA) were seeded at 3×10^4 cells/cm^2 on poly-L-Lysine coated plastic tissue culture dishes (Corning, Lowell, Mass., USA) to form an adherent monolayer. Cells were maintained in Dulbecco's modified Eagle's medium (DMEM) supplemented with 10% horse serum (HS), 5% fetal calf serum (FCS), 2 mM glutamine, 100 U/ml penicillin and […] streptomycin (Biological Industries, Beit Haemek, Israel). PC12 differentiation was induced by nerve growth factor (NGF, Sigma) at concentrations of 50 ng/ml by replacing half of the medium every other day until the cells acquired a differentiated morphology. Differentiated cells were defined as bearing two or more neurites with lengths equal to or more than twice the diameter of the cell body (P. Lamoureux et al., The Journal of cell biology 110, 71 (January, 1990)). The cells were incubated in 5% CO2 in a humidified incubator at 37° C. The cells were sub-cultured every 5 days at a 4:1 split ratio by pipetting. The medium was changed every 2 or 3 days after adhesion.
Transfections were performed using Lipofectamine RNAiMAX (Invitrogen). Transfection was carried out according to manufacturer's protocol. For rat MAPRE3 knockdown, PC12 cells or neurons were plated in growth medium without antibiotics at concentration of 10^4 cells/0.32 cm^2 such that they will be 30-50% confluent at the time of transfection. To obtain the highest transfection efficiency and low non-specific effects, siRNA transfection was performed in the following optimized conditions: 50 nM for neurons and 25 nM PC12 of each siRNA construct with 0.2 μl Lipofectamine RNAiMAX (Invitrogen) was added per well of the 96-well plate and scaled up for different 24 or 6-well plates, according to the manufacturer's instructions. The medium was changed one day after transfection. 48 and 72 hours later, cells were harvested to assay for gene knockdown at the RNA and protein levels.
The cells were incubated for 4 hrs at 37° C. 5% CO2. Survival was measured using the MTS assay.
Metabolic activity of cells was measured by the CellTiter 96® Aqueous Non-Radioactive Cell Proliferation kit in accordance with the manufacturer's instructions (Promega). The assay uses a colorimetric method for determining the number of viable cells employing a tetrazolium compound [3-(4,5-dimethylthiazol-2-yl)-5-(3-carboxymethoxyphenyl)-2-(4-sulfophenyl)-2H-tetrazolium, MTS] and an electron-coupling reagent, phenazine methosulfate (PMS). MTS is bio-reduced by cells into a formazan product that is detected at 490 nm. The conversion of MTS into the formazan form is accomplished by dehydrogenase enzymes found in metabolically active cells. Thus, the quantity of formazan product as measured by the amount of 490 nm absorbance is directly proportional to the number of living cells in culture (A. H. Cory, T. C. Owen, J. A. Barltrop, J. G. Cory, Cancer Commun 3, 207 (July, 1991)).

[3] = system: PC12 cells; details: ZnCl2 400 μM, increasing concentrations of peptide

## NAPVSKIPQ (synthetic novel peptide core sequence SKIP derived from hybrid microtubule end-binding protein 3 (EB3)- binding microtubule plus-end tracking proteins (+TIPs) and activity-dependent neurotrophic factor (ADNF) active core site (NAP))
[1]
  competition for EB3 binding to column-bound NAP: no binding of EB3 to the column bound NAP
[2]
  protection against cell death induced by zinc toxicity (MTS survival): provided protection against zinc toxicity; also recorded: significantly increased survival
[2]; listed as SKIP
  protection against cell death induced by zinc toxicity (MTS survival): significantly increased survival
[3]
  protection against zinc-induced cell death: protected by the addition of SKIP, over a wide range of concentrations
